Here are results for three compounds from ChEMBL document CHEMBL1127385, “Synthesis and diuretic activity of alkyl- and arylguanidine analogs of N,N'-dicyclohexyl-4-morpholinecarboxamidine in rats and dogs” (J Med Chem, 1994).

Molecules are shown by their SMILES.

For series [1], the system named is Rattus norvegicus. Put plainly: Total electrolytic excretion of chlorine in urine of rats after peroral administration of 83.8 uM/Kg of drug. The class given is ADME, organism-based. The conditions noted are these: in vivo, po.
Series [2] has as its system Rattus norvegicus. The series can be described thus: Total electrolytic excretion of chlorine in urine of rats after peroral administration of 27.9 uM/Kg of drug. The class given is ADME, organism-based. The conditions noted are these: in vivo, po.
Series [3] concerns Rattus norvegicus. Put plainly: Total electrolytic excretion of chlorine in urine of rats after peroral administration of 279 uM/Kg of drug. The class given is ADME, organism-based. The conditions noted are these: in vivo, po.
For series [4], the system named is Rattus norvegicus. Put plainly: Total electrolytic excretion of potassium in urine of rats after peroral administration of 27.9 uM/Kg of drug. Format: ADME, organism-based. The conditions noted are these: in vivo, po.
In series [5] the test system is Rattus norvegicus. The series can be described thus: Total electrolytic excretion of potassium in urine of rats after peroral administration of 83.8 uM/Kg of drug. Format: ADME, organism-based. The conditions noted are these: in vivo, po.
In series [6] the test system is Rattus norvegicus. The series can be described thus: Total electrolytic excretion of potassium in urine of rats after peroral administration of 279 uM/Kg of drug. The class given is ADME, organism-based. Particulars: in vivo, po.
Series [7] deals with Rattus norvegicus. Put plainly: Tested for the diuretic activity by measuring the urinary volume after peroral administering 83.8 uM/Kg of drug in rats. Format: ADME, organism-based, Urine. Particulars: in vivo, po.
Series [8] has as its system Rattus norvegicus. Put plainly: Total electrolytic excretion of sodium in urine of rats after peroral administration of 27.9 uM/Kg of drug. The class given is ADME, organism-based. Particulars: in vivo, po.
For series [9], the system named is Rattus norvegicus. Put plainly: Total electrolytic excretion of sodium in urine of rats after peroral administration of 279 uM/Kg of drug. The class given is ADME, organism-based. The conditions noted are these: in vivo, po.
The subject of series [10] is Rattus norvegicus. The series can be described thus: Total electrolytic excretion of sodium in urine of rats after peroral administration of 83.8 uM/Kg of drug. The class given is ADME, organism-based. Particulars: in vivo, po.
Series [11] deals with Rattus norvegicus. The series can be described thus: Tested for the diuretic activity by measuring the urinary volume after peroral administering 27.9 uM/Kg of drug in rats. The conditions noted are these: in vivo, po. The class given is ADME, organism-based, Urine.
Series [12] deals with Rattus norvegicus. Put plainly: Tested for the diuretic activity by measuring the urinary volume after peroral administering 279 uM/Kg of drug in rats. Format: ADME, organism-based, Urine. Particulars: in vivo, po.
Series [13] has as its system Rattus norvegicus. The series can be described thus: Ratio of Total electrolytic excretion of sodium and potassium in urine of rats after peroral administration of 279 uM/Kg of drug. Format: ADME, organism-based. Particulars: in vivo, po.
For series [14], the system named is Rattus norvegicus. Put plainly: Ratio of Total electrolytic excretion of sodium and potassium in urine of rats after peroral administration of 83.8 uM/Kg of drug. Format: ADME, organism-based. Particulars: in vivo, po.
Series [15] concerns Rattus norvegicus. Put plainly: Ratio of Total electrolytic excretion of sodium and potassium in urine of rats after peroral administration of 27.9 uM/Kg of drug. Format: ADME, organism-based. Particulars: in vivo, po.
The subject of series [16] is Rattus norvegicus. Put plainly: Total electrolytic excretion of chlorine in urine of rats after peroral administration of 26.5 uM/Kg of drug. The class given is ADME, organism-based. The conditions noted are these: in vivo, po.
Series [17] concerns Rattus norvegicus. Put plainly: Total electrolytic excretion of chlorine in urine of rats after peroral administration of 265 uM/Kg of drug. Format: ADME, organism-based. Particulars: in vivo, po.
For series [18], the system named is Rattus norvegicus. Put plainly: Total electrolytic excretion of chlorine in urine of rats after intravenous administration of 7.94 uM/Kg of drug. Format: ADME, organism-based. The conditions noted are these: in vivo.
Series [19] concerns Rattus norvegicus. The series can be described thus: Total electrolytic excretion of sodium in urine of rats after intravenous administration of 7.94 uM/Kg of drug. Format: ADME, organism-based. Particulars: in vivo.
Series [20] has as its system Rattus norvegicus. Put plainly: Total electrolytic excretion of chlorine in urine of rats after peroral administration of 79.4 uM/Kg of drug. Format: ADME, organism-based. The conditions noted are these: in vivo, po.
Series [21] concerns Rattus norvegicus. Put plainly: Total electrolytic excretion of potassium in urine of rats after peroral administration of 7.94 uM/Kg of drug. Format: ADME, organism-based. The conditions noted are these: in vivo, po.
Series [22] has as its system Rattus norvegicus. Put plainly: Total electrolytic excretion of potassium in urine of rats after peroral administration of 79.4 uM/Kg of drug. Format: ADME, organism-based. The conditions noted are these: in vivo, po.
Series [23] deals with Rattus norvegicus. Put plainly: Tested for the diuretic activity by measuring the urinary volume after peroral administering 79.4 uM/Kg of drug in rats. Format: ADME, organism-based, Urine. The conditions noted are these: in vivo, po.
The test system of series [24] is Rattus norvegicus. The series can be described thus: Total electrolytic excretion of sodium in urine of rats after peroral administration of 26.5 uM/Kg of drug. The conditions noted are these: in vivo, po. The class given is ADME, organism-based.
Series [25] relates to Rattus norvegicus. Put plainly: Total electrolytic excretion of sodium in urine of rats after peroral administration of 265 uM/Kg of drug. Format: ADME, organism-based. Particulars: in vivo, po.
Series [26] concerns Rattus norvegicus. Put plainly: Total electrolytic excretion of sodium in urine of rats after peroral administration of 79.4 uM/Kg of drug. The class given is ADME, organism-based. The conditions noted are these: in vivo, po.
Series [27] deals with Rattus norvegicus. Put plainly: Tested for the diuretic activity by measuring the urinary volume after peroral administering 26.5 uM/Kg of drug in rats. Format: ADME, organism-based, Urine. Particulars: in vivo, po.
The subject of series [28] is Rattus norvegicus. Put plainly: Tested for the diuretic activity by measuring the urinary volume after peroral administering 265 uM/Kg of drug in rats. The conditions noted are these: in vivo, po. Format: ADME, organism-based, Urine.
Series [29] has as its system Rattus norvegicus. Put plainly: Total electrolytic excretion of potassium in urine of rats after peroral administration of 265 uM/Kg of drug. The class given is ADME, organism-based. Particulars: in vivo, po.
Series [30] has as its system Rattus norvegicus. The series can be described thus: Ratio of Total electrolytic excretion of sodium and potassium in urine of rats after peroral administration of 26.5 uM/Kg of drug. The class given is ADME, organism-based. Particulars: in vivo, po.
Series [31] deals with Rattus norvegicus. Put plainly: Ratio of Total electrolytic excretion of sodium and potassium in urine of rats after peroral administration of 265 uM/Kg of drug. Format: ADME, organism-based. The conditions noted are these: in vivo, po.
Series [32] has as its system Rattus norvegicus. Put plainly: Ratio of Total electrolytic excretion of sodium and potassium in urine of rats after intravenous administration of 7.94 uM/Kg of drug. The class given is ADME, organism-based. The conditions noted are these: in vivo.
In series [33] the test system is Rattus norvegicus. Put plainly: Ratio of Total electrolytic excretion of sodium and potassium in urine of rats after peroral administration of 79.4 uM/Kg of drug. The class given is ADME, organism-based. The conditions noted are these: in vivo, po.
In series [34] the test system is Rattus norvegicus. Put plainly: Total electrolytic excretion of potassium in urine of rats after peroral administration of 26.5 uM/Kg of drug. Format: ADME, organism-based. Particulars: in vivo, po.
Series [35] deals with Rattus norvegicus. Put plainly: Total electrolytic excretion of potassium in urine of rats after peroral administration of 0 uM/Kg of drug. The class given is ADME, organism-based. The conditions noted are these: in vivo, po.
The subject of series [36] is Rattus norvegicus. The series can be described thus: Total electrolytic excretion of sodium in urine of rats after peroral administration of 0 uM/Kg of drug. The class given is ADME, organism-based. Particulars: in vivo, po.
Series [37] deals with Rattus norvegicus. Put plainly: Tested for the diuretic activity by measuring the urinary volume after peroral administering 0 uM/Kg of drug in rats. Format: ADME, organism-based, Urine. The conditions noted are these: in vivo, po.

Take `C1CCCC(/N=C(/NC2CCCCCC2)N2CCOCC2)CC1`: the “Excretion Cl-” value was 1.63 m equiv in [1], 1.37 m equiv in series [2] and 1.66 m equiv in [3]. Moreover, the entries for the “Excretion K+” value in [4], in series [5] and in series [6] were 0.32 m equiv, 0.31 m equiv and 0.28 m equiv, respectively. For the same compound, the V in series [7] is 9.7 mL; in series [11], 8.4 mL; in series [12], 9.1 mL. Further, the “Excretion Na+” value in series [8] is recorded as 1.21 m equiv; in series [9], 1.54 m equiv; in [10] it was 1.53 m equiv. In addition, the values for the Ratio in series [13], in series [14] and in series [15] were 5.6, 5 and 3.8, respectively.

Turning to `Cc1cccc(C)c1N/C(=N/C1CCCCC1)N1CCOCC1`, the “Excretion Cl-” value in series [16] stood at 1.4 m equiv; in [17] it was 1.86 m equiv; in series [18], 6.5 m equiv; in series [20] it was 1.7 m equiv. The “Excretion Na+” value in series [19] turned out to be 7.8 m equiv; in [24], 1.44 m equiv; in [25], 2.05 m equiv; in series [26], 1.71 m equiv. The “Excretion K+” value in series [21] turned out to be 1.3 m equiv; in [22] it was 0.35 m equiv; in [29], 0.29 m equiv; in series [34] it was 0.33 m equiv. Besides, the V in series [23] came out at 12.3 mL; in series [27], 9.5 mL; in [28], 17.4 mL. The Ratio turned out to be 4.4 in [30], 6.1 in series [31], 6.5 in [32] and 4.8 in series [33].

Turning to `NS(=O)(=O)c1cc(C(=O)O)c(NCc2ccco2)cc1Cl` [FUROSEMIDE], in series [35], the “Excretion K+” value was 0.24 m equiv. For the same compound, the “Excretion Na+” value in series [36] came to 0.65 m equiv. In [37], this compound had a V of 4.4 mL.
